Experimental data published in patent US20230372253A1, “NOVEL LIPID-BASED SMALL MOLECULE INTEGRIN RECEPTOR-LIGAND AGONIST ADJUVANTS CARRIER COMPOSITIONS, INTEGRIN AGONIST ADJUVANT PHARMACEUTICAL COMPOSITIONS THEREFROM, AND METHODS FOR MAKING AND USING SAME” (7 Hills Pharma LLC, priority 2022, published 2023).
Read-outs that look alike come from different tables or passages of the source.

Tests used:
Solubility of 7HP349 = format: physicochemical
LogP = format: physicochemical
Description: The term “Log P” means the ratio of the concentrations of a substance in two heterogenous phases in equilibrium with each other. Typically, the organic solvent in n-octanol, but n-hexane; toluene; chlorobenzene; dichloromethane; methyl tert-butyl ether; isopropyl acetate; benzyl alcohol; cyclohexanol; or n-butanol may be used as well.

CYP3A4 = CYP3A4 (Homo sapiens, UniProt P08684); assay: Cytochrome P450 Metabolism; format: in vitro ADME
CYP2C19 = CYP2C19 (Homo sapiens, UniProt P33261); assay: Cytochrome P450 Metabolism; format: in vitro ADME
Human SAD PK = format: in vivo; conditions: plasma, oral; for AUC(0-t): human; for AUC(0-t) / Cmax / half-life: mean ± SD; for Cmax / half-life / Tmax: n = 6; for Tmax: median
Description: Preferred lipid-based formulation based on U28 provided adequate exposure in human. The optimal PK exposure to engage integrins and improve adjuvant activity is systemic plasma exposure of AUC0-t between about 50 ng/mL/hr and about 100 ng/mL/hr.

CYP2C19, sequence (P33261 whole entry): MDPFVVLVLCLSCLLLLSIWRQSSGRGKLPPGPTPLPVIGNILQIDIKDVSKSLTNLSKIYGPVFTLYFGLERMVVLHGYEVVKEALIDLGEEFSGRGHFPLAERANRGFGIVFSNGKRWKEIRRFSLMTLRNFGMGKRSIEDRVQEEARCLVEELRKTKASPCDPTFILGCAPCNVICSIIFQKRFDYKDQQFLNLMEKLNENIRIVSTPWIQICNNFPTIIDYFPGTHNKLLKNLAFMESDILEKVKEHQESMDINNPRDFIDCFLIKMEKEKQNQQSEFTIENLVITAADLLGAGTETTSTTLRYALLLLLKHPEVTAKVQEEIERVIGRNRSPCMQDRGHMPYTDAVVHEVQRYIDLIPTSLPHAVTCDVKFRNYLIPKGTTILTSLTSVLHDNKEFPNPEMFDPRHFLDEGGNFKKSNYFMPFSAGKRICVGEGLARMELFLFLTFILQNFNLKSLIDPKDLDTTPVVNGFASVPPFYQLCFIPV
CYP3A4, sequence (P08684 whole entry): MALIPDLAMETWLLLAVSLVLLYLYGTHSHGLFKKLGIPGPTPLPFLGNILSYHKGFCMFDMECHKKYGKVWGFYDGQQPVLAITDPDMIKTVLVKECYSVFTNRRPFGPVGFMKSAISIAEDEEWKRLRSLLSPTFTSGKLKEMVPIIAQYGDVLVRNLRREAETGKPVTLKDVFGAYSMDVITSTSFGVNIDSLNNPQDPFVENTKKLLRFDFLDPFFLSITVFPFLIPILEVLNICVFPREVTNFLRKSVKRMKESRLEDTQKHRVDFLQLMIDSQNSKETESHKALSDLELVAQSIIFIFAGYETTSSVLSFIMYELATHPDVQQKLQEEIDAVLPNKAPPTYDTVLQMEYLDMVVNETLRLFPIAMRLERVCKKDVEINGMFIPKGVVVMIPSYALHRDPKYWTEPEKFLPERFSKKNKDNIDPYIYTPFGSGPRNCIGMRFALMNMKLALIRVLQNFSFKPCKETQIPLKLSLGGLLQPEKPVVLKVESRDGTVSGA

With `O=C(OCCOCCOCCOC(=O)N(Cc1cccs1)Cc1cccs1)N(Cc1cccs1)Cc1cccs1` [Form 7HP349, 3-oxo-1-(2-thienyl)-2-(2-thienylmethyl)-4,7,10-trioxa-2-azadodecan-12-yl bis(2-thienylmethyl)carbamate] the Solubility (Solubility of 7HP349; aqueous buffers and simulated gastrointestinal fluids, aqueous buffer, hydrochloric acid-potassium chloride buffer (pH 2), citrate buffer (pH 4), sodium phosphate buffer (pH 7.4), SGF, FaSSIF and FeSSIF, read-out: Solubility) was under 0.01 µM, the Solubility (Solubility of 7HP349; common organic solvents such as methanol, ethanol, ethyl acetate, acetone, DMSO, DMF, DCM, etc.) was “Highly soluble in common organic solvents such” and the Solubility (Solubility of 7HP349; in water) was “Insoluble in water”. For the same compound, the Solubility (Solubility of 7HP349; non-polar organic solvents such as hexane, heptane, etc.) was “Practically insoluble in non-polar organic solvents”, the Solubility (Solubility of 7HP349; oil or lipid, vegetable oils such as corn, soybean, canola oils typically containing >C16 fatty acids, read-out: Solubility) was at most 50 mg/mL and the logP (LogP) was 6.22. For the same compound, the “Cytochrome P450 Metabolism” value (CYP3A4) was “Substrate for CYP3A4 and CYP2C19”, the “Cytochrome P450 Metabolism” value (CYP2C19) was “Substrate for CYP3A4 and CYP2C19” and the AUC(0-t) (Human SAD PK; 50 mg, cohort 1, 50 mg, n = 6, read-out: AUC0-10 h) was 12.5 ng·h/mL. The AUC(0-t) (Human SAD PK; 50 mg, cohort 1, 50 mg, n = 6, read-out: AUClast) was 31.8 ± 21.5 ng·h/mL, the AUC(0-t) (Human SAD PK; 100 mg, cohort 2, 100 mg, n = 6, read-out: AUC0-10 h) was 115 ± 57.5 ng·h/mL and the AUC(0-t) (Human SAD PK; 100 mg, cohort 2, 100 mg, n = 6, read-out: AUClast) was 165 ng·h/mL. For the same compound, the AUC(0-t) (Human SAD PK; 200 mg, cohort 3, 200 mg, n = 6, read-out: AUC0-10 h) was 571 ± 195 ng·h/mL, the AUC(0-t) (Human SAD PK; 200 mg, cohort 3, 200 mg, n = 6, read-out: AUClast) was 755 ± 241 ng·h/mL and the AUC(0-t) (Human SAD PK; 300 mg, cohort 4, 300 mg, n = 6, read-out: AUC0-10 h) was 938 ± 282 ng·h/mL. It also gave an AUC(0-t) (Human SAD PK; 300 mg, cohort 4, 300 mg, n = 6, read-out: AUClast) of 1350 ± 316 ng·h/mL, a Cmax (Human SAD PK; cohort 1, 50 mg) of 10.2 ± 8.17 ng/mL and a half-life (Human SAD PK; cohort 1, 50 mg) of 8.9 h. The Tmax (Human SAD PK; cohort 1, 50 mg) was 2.5 h, the Cmax (Human SAD PK; cohort 2, 100 mg) was 36.1 ± 16.4 ng/mL and the half-life (Human SAD PK; cohort 2, 100 mg) was 20.6 ± 15 h. It also gave a Tmax (Human SAD PK; cohort 2, 100 mg) of 2 h, a Cmax (Human SAD PK; cohort 3, 200 mg) of 166 ± 61.8 ng/mL and a half-life (Human SAD PK; cohort 3, 200 mg) of 34.6 ± 20.7 h. For the same compound, the Tmax (Human SAD PK; cohort 3, 200 mg) was 2 h, the Cmax (Human SAD PK; cohort 4, 300 mg) was 321 ng/mL and the half-life (Human SAD PK; cohort 4, 300 mg) was 29.7 ± 15.4 h. For the same compound, the Tmax (Human SAD PK; cohort 4, 300 mg) was 2 h.

`O=C(OCCOCCOC(=O)N(Cc1cccs1)Cc1cccs1)N(Cc1cccs1)Cc1cccs1` [Form 7HP577, 3-oxo-1-(2-thienyl)-2-(2-thienylmethyl)-4,7-dioxa-2-azanonan-9-yl bis(2-thienylmethyl)carbamate] showed a logP (LogP) of 6.58.
